These are literature values, as cited in patent US20190008969A1, “COMPOSITIONS FOR DRUG DELIVERY” (Tioga Research, Inc., priority 2017, published 2019).

SMILES strings stand for the structures.

For this data set the following is noted: spray format at 0.25 wt %.

On to `C[C@@H]1C[C@H]2[C@@H]3CCC4=CC(=O)C=C[C@]4(C)[C@@]3(F)[C@@H](O)C[C@]2(C)[C@H]1C(=O)CO` [desoximetasone, (8S,9S,10S,11S,13S,14S,16R,17S)-9-fluoro-11-hydroxy-17-(2-hydroxyacetyl)-10,13,16-trirmethyl-7,8,11,12,14,15,16,17-octahydro-6H-cyclopenta[a]phenanthren-3-one], for which the “Efficacy in treating psoriasis” value was “efficacious” and the “Safety in treating psoriasis” value was “safe”.
